Data as given in patent US20090099167A1, “Organic compounds” (Novartis Institutes for Biomedical Research, priority 2004, published 2009).

Molecular target: T1, human EphB4 (Homo sapiens, UniProt P54760)
T1 construct: expressed in transfected cells; host or cells: A375 human melanoma cells (ATCC CRL-1619)
T1 sequence (P54760 16-987): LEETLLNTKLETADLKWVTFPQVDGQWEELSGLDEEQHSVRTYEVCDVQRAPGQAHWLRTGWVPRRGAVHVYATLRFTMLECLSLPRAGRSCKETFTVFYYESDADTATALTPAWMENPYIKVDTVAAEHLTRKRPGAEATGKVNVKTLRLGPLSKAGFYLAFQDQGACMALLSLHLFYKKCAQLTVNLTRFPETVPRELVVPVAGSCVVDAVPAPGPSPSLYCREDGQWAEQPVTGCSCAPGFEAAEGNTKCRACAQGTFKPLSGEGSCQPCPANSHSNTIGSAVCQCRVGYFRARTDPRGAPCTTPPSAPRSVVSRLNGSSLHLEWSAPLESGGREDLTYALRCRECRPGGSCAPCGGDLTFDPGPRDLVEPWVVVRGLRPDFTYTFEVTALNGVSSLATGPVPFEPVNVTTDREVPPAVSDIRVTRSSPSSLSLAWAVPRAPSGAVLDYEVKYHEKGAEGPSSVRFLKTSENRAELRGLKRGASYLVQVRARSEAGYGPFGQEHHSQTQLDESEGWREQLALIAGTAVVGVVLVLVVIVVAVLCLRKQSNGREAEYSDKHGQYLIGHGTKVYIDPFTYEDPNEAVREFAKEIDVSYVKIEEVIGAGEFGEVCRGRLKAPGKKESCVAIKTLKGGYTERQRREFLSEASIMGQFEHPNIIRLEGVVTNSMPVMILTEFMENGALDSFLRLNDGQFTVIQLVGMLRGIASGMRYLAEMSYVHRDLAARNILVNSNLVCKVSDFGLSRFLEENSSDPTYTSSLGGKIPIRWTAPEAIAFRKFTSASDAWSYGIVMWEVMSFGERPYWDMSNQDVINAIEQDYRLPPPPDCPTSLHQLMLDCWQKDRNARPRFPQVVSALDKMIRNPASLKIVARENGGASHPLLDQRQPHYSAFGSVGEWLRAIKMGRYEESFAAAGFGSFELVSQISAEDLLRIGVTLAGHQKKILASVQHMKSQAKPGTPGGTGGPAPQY
Experiment: Cellular assay EphB4 receptor autophosphorylation, transfected A375 cells, sandwich ELISA
Assay type: cell-based
Settings: inhibition of autophosphorylation of EphB4 kinase, Table 6
Description: The inhibition of EphB4 receptor autophosphorylation can be confirmed with an in vitro experiment in cells such as transfected A375 human melanoma cells (ATCC Number: CRL-1619), which permanently express human EphB4 (SwissProt AccNo P54760), are seeded in complete culture medium (with 10% fetal calf serum=FCS) in 6-well cell-culture plates and incubated at 37° C. under 5% CO2 until they show about 90% confluency. The compounds to be tested are then diluted in culture medium (without FCS, with 0.1% bovine serum albumin) and added to the cells. (Controls comprise medium without test compounds). Ligand induced autophosphorylation is induced by the addition of 1 microg/ml soluble ephrinB2-Fc (s-ephrinB2-Fc: R&D Biosystems, CatNr 496-EB) and 0.1 microM ortho-vanadate. After a further 20 minutes incubation at 37° C., the cells are washed twice with ice-cold PBS (phosphate-buffered saline) and immediately lysed in 200 μl lysis buffer per well. The lysates are then centrifuged to remove the cell nuclei, and the protein concentrations of the supernatants are determined using a commercial protein assay (PIERCE). The lysates can then either be immediately used or, if necessary, stored at −20° C.
A sandwich ELISA is carried out to measure the EphB4 phosphorylation: To capture phosphorylated EphB4 protein 100 ng/well of ephrinB2-Fc (s-ephrinB2-Fc: R&D Biosystems, CatNr 496-EB) is immobilized MaxiSorb (Nunc) ELISA plates. The plates are then washed and the remaining free protein-binding sites are saturated with 3% TopBlock® (Juro, Cat. # TB232010) in phosphate buffered saline with Tween 20° (polyoxyethylen(20)sorbitane monolaurate, ICI/Uniquema) (PBST). The cell lysates (100 μg protein per well) are then incubated in these plates for 1 h at room temperature. After washing the wells three times with PBS an antiphosphotyrosine antibody coupled with alkaline phosphatase (PY 20 Alkaline Phosphate conjugated: ZYMED, Cat Nr03-7722) is added and incubated for another hour. […] The difference between the signal of the positive control (stimulated with vanadate and s-ephrinB2-Fc) and that of the negative control (not stimulated) corresponds to maximal EphB4 phosphorylation (=100%). The activity of the tested substances is calculated as percent inhibition of maximal EphB4 phosphorylation, wherein the concentration of substance that induces half the maximum inhibition is defined as the IC50 (inhibitory dose for 50% inhibition). […] The mice are treated with the test compound (e.g. 25, 50 or 100 mg/kg p.o. once daily) or vehicle starting on the day of implantation of the chamber and continuing for 4 days after. At the end of the treatment, the mice are killed, and the chambers are removed. The vascularized tissue growing around the chamber is carefully removed and weighed, and the blood content is assessed by measuring the hemoglobin content of the tissue (Drabkins method; Sigma, Deisenhofen, Germany). It has been shown previously that these growth factors induce dose-dependent increases in weight and blood content of this tissue growing (characterized histologically to contain fibroblasts and small blood vessels) around the chambers and that this response is blocked by antibodies that specifically neutralize VEGF (see Wood J M et al., Cancer Res. 60(8), 2178-2189, (2000); and Schlaeppi et al., J. Cancer Res. Clin. Oncol. 125, 336-342, (1999)). With this model, inhibition can be shown in the case of compounds of the formula (I).

IC50, < 1000 nM:
Cc1nc2c(-c3cccc(N4CCN(C)CC4)c3)cnn2c(N)c1-c1ccc(F)cc1 [Example 80, 6-(4-Fluoro-phenyl)-5-methyl-3-[3-(4-methyl-piperazin-1-yl)-phenyl]-pyrazolo[1,5-a]pyrimidin-7-ylamine]
Cc1nc2c(-c3ccc(N4CCN(C)CC4)cc3)cnn2c(N)c1-c1ccc(F)c(Cl)c1 [Example 83, 6-(3-Chloro-4-fluoro-phenyl)-5-methyl-3-[4-(4-methyl-piperazin-1-yl)-phenyl]-pyrazolo[1,5-a]pyrimidin-7-ylamine]
Cc1nc2c(-c3cccc(N4CCN(CCO)CC4)c3)cnn2c(N)c1-c1cccc(Cl)c1 [Example 90, 2-(4-{3-[7-Amino-6-(3-chloro-phenyl)-5-methyl-pyrazolo[1,5-a]pyrimidin-3-yl]-phenyl}-piperazin-1-yl)-ethanol]
COc1ccc(-c2cnn3c(N)c(-c4cccc(Cl)c4)c(C)nc23)cc1OC [Example 93, 6-(3-Chloro-phenyl)-3-(3,4-dimethoxy-phenyl)-5-methyl-pyrazolo[1,5-a]pyrimidin-7-ylamine]
Cc1nc2c(-c3cccc(N4CCN(CCO)CC4)c3)cnn2c(N)c1-c1ccc(F)c(Cl)c1 [Example 100, 2-(4-{3-[7-Amino-6-(3-chloro-4-fluoro-phenyl)-5-methyl-pyrazolo[1,5-a]pyrimidin-3-yl]-phenyl}-piperazin-1-yl)-ethanol]
